One series concerns the target T1, hCA I (Homo sapiens, UniProt P00915).
T1 construct: made in house
Nature of the series: stopped-flow CO2 hydrase assay, hCA I. The series is classed as biochemical. How it is done: (§1) For that purpose, the stopped-flow CO2 hydration assay was used (Table 1).
(§2) The inhibitory properties of title compounds against CAs were determined using the stopped-flow CO2 hydrase assay, as previously reported.

The target of a further series is T2, hCA II (Homo sapiens, UniProt P00918).
T2 construct: made in house
Nature of the series: stopped-flow CO2 hydrase assay, hCA II. It counts as biochemical. How it is done:
as §1, §2

For another series, the target named is T3, hCA IX (Homo sapiens, UniProt Q16790).
T3 construct: made in house
Nature of the series: stopped-flow CO2 hydrase assay, hCA IX. It counts as biochemical. As to the method: as §1, §2

A further series deals with T4, hCA XII (Homo sapiens, UniProt O43570).
T4 construct: made in house
The series can be described thus: stopped-flow CO2 hydrase assay, hCA XII. It counts as biochemical. As to the method: as §1, §2

Series [1] deals with A549, HBL-100, HeLa, SW1573, T-47D, WiDr. The series can be described thus: antiproliferative assay (NCI protocol), panel of six human tumor cell lines. The series is classed as cell-based. As to conditions: normoxic conditions. How it is done:
(§3) Some representative compounds (5a–e, 16b, 16e–i) were also tested as potential antiproliferative agents against a panel of six human tumor cell lines: A549 (non-small cell lung), HBL-100 (breast), HeLa (cervix), SW1573 (non-small cell lung), T-47D (breast), WiDr (colon). Unfortunately, no relevant activity was found for the tested compounds.
(§4) Minor modifications of the US National Cancer Institute (NCI) protocol were used.

Series [2] concerns A549 (non-small cell lung). Nature of the series: antiproliferative assay (NCI protocol), A549. It counts as cell-based. As to conditions: Homo sapiens; line A549; normoxic conditions. How it is done:
as §3, §4

[3] abbreviates: sulfonamido-containing squaramides, mean from 3 assays, stopped flow.
Setting [4] is: coumarin-containing squaramides, incubation time 6 h, mean from three assays.

T4 sequence (O43570 25-354): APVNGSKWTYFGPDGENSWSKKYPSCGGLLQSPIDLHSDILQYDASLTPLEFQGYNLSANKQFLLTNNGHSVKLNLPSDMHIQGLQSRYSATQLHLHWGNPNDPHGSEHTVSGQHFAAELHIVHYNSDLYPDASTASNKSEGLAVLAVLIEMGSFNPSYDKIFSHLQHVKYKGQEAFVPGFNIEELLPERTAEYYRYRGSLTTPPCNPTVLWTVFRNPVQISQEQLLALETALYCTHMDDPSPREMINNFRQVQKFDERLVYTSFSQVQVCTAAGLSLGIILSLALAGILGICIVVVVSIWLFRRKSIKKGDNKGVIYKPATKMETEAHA
T1 sequence (P00915 whole entry): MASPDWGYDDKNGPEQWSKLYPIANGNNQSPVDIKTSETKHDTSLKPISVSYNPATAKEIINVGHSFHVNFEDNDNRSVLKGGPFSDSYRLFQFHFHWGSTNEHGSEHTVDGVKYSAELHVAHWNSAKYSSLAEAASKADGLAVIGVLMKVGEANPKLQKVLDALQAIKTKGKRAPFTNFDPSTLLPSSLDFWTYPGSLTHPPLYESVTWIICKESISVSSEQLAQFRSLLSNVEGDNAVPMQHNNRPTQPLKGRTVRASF

The Ki is a dissociation constant, usually derived from enzyme kinetics or from competition with a known ligand. In general, GI50 refers to the concentration giving 50% growth inhibition. For the compound `NS(=O)(=O)c1ccc(CCNc2c(NCCc3ccc(S(N)(=O)=O)cc3)c(=O)c2=O)cc1` [Compound 6, 3,4-Bis[2′-(4″-sulfonamidophenyl)ethylamino]cyclobut-3-ene-1,2-dione], the Ki at hCA I (setting [3]) was determined as 43.2 nM; at hCA II (setting [3]), 56.2 nM; on hCA IX (setting [3]) it was 83 nM; on hCA XII (setting [3]), 87.8 nM. Also, at hCA IX (Ki (CA I)/Ki (CA IX)), the “S.I. I/IX” value turned out to be 0.52. Further, at hCA IX (Ki (CA II)/Ki (CA IX)), the “S.I. II/IX” value amounted to 0.68. The “S.I. I/XII” value at hCA XII (Ki (CA I)/Ki (CA XII)) amounted to 0.49. Further, the “S.I. II/XII” value on hCA XII (Ki (CA II)/Ki (CA XII)) is recorded as 0.64. Besides, the GI50 in series [1] (all the cell lines) is above 100000 nM.

What is called melting point is the temperature, or range, at which the solid turns liquid. Regarding `Cc1cc(=O)oc2cc(OCCCCCNc3c(Nc4ccccc4)c(=O)c3=O)ccc12` [Compound 16b, 3-{[5′-((4″-Methyl-2″-oxo-2″H-chromen-7″-yl)oxy)pentyl]amino}-4-phenylaminocyclobut-3-ene-1,2-dione], the melting point was above 250 °C. This compound also yielded a Ki on hCA I (setting [4]) above 10000 nM. In addition, on hCA II (setting [4]), the Ki was above 10000 nM. The compound further came in with a Ki at hCA IX (setting [4]) of 44.1 nM. This compound registered a Ki at hCA XII (setting [4]) of 14.3 nM. This compound returned a GI50 in series [2] of 94000 ± 10000 nM. Also, in series [1] (the rest of the cell lines (other than A549)), the concentration for 50% growth inhibition (GI50) was above 100000 nM.

`COc1ccc(Nc2c(NCCCCCOc3ccc4c(C)cc(=O)oc4c3)c(=O)c2=O)cc1` [Compound 16e, 3-[(4′-Methoxyphenyl)amino]-4-{[5″-(4‴-methyl-2‴-oxo-2‴H-chromen-7‴-yl)oxypentyl]amino}cyclobut-3-ene-1,2-dione] showed a melting point of 215 to 216 °C. For the same compound, the inhibitory constant (Ki) on hCA I (setting [4]) was above 10000 nM. Moreover, the Ki at hCA II (setting [4]) was above 10000 nM. For the same compound, the Ki at hCA IX (setting [4]) stood at 59.7 nM. At hCA XII (setting [4]), the Ki came out at 19.5 nM. In series [1] (all the cell lines), the 50% growth inhibitory concentration (GI50) is above 100000 nM.

Take `Cc1cc(=O)oc2cc(OCCCCCNc3c(Nc4ccc(F)cc4)c(=O)c3=O)ccc12` [Compound 16f, 3-[(4′-Fluorophenyl)amino]-4-{[5″-(4‴-methyl-2‴-oxo-2‴H-chromen-7‴-yl)oxypentyl]amino}cyclobut-3-ene-1,2-dione]: the Ki on hCA I (setting [4]) is above 10000 nM; on hCA II (setting [4]) it was above 10000 nM; at hCA IX (setting [4]), 43.7 nM; on hCA XII (setting [4]), 15.9 nM. Moreover, the concentration for 50% growth inhibition (GI50) in series [1] (all the cell lines) is above 100000 nM.

As for `Cc1c(C)c2ccc(OCCCCCNc3c(Nc4ccc(I)cc4)c(=O)c3=O)cc2oc1=O` [Compound 16o, 3-{[5′-(3″,4″-Dimethyl-2″-oxo-2″H-chromen-7″-yl)oxypentyl]amino}-4-(4‴-iodophenylamino)cyclobut-3-ene-1,2-dione], the melting point is above 250 °C. At hCA I (setting [4]), this compound displayed a Ki above 10000 nM. This compound gave a Ki at hCA II (setting [4]) above 10000 nM. On hCA IX (setting [4]), this compound returned a Ki of 92.1 nM. On hCA XII (setting [4]), this compound gave a Ki of 50.8 nM.

On to `O=c1cc(-c2ccccc2)c2ccc(OCCCCCNc3c(Nc4ccccc4)c(=O)c3=O)cc2o1` [Compound 16p, 3-Phenylamino-4-{[5′-(4″-Phenyl-2″-oxo-2″H-chromen-7″-yl)oxypentyl]amino}cyclobut-3-ene-1,2-dione], for which the melting point lay within 209 to 210 °C. On hCA I (setting [4]), this compound came in with a Ki above 10000 nM. This compound registered a Ki at hCA II (setting [4]) above 10000 nM. On hCA IX (setting [4]), affinity was put at a Ki of 267 nM. At hCA IX (vs 16b), the “fold decreased activity compared with 16b, CA IX” value is “roughly 6.1 fold”. This compound displayed a Ki at hCA XII (setting [4]) of 87.9 nM. Besides, the “fold decreased activity compared with 16b, CA XII” value on hCA XII (vs 16b) is reported as “roughly 6.1 fold”.

The values are drawn from article PMC9318203, “Squaramide-Tethered Sulfonamides and Coumarins: Synthesis, Inhibition of Tumor-Associated CAs IX and XII and Docking Simulations” (International Journal of Molecular Sciences, 2022).
